Assay results from PMC12526156, “Optimization of the Macrocyclic Tetrapeptide [D-Trp]CJ-15,208 to Prevent Stress-Induced Relapse of Cocaine-Seeking Behavior” (Molecules, 2025).
≈ marks a conversion by molar mass, not a printed value. Where two headings read alike, the source gives them in different places. Where a SMILES comes first, the peptide text is derived from it. [ ]: non-standard residue; d: D form. The star is where a group is joined. dPhe(3,5-F2) = N[C@H](Cc1cc(F)cc(F)c1)C(=O)O; dPhe(3-Me) = Cc1cccc(C[C@@H](N)C(=O)O)c1; dPhe(3-F) = N[C@H](Cc1cccc(F)c1)C(=O)O; For = O=C*

Assays:
[1] = target: T1, human MOR (Homo sapiens, UniProt P35372); assay: biochemical; assay type: binding
T1 construct: expressed in transfected cells

[2] = target: T2, hKOR (Homo sapiens, UniProt P41145); assay: KOR cAMP assay using GloSensor-22F, agonist mode (KOR-CHO-GLO cells); assay type: cell-based; settings: read-out: KOR Efficacy (%)
[3] = Metabolic stability in human liver microsomes; assay type: in vitro ADME; settings: 1 mg protein/mL; for half-life at 1 µM / microsomal CLint at 1 µM: human liver microsomes
Experimental: (§1) Evaluation of the metabolic stability of the macrocyclic tetrapeptides by human and mouse liver microsomes was performed by Curia Global (Buffalo, NY, USA). […]

[4] = Metabolic stability in mouse liver microsomes; assay type: in vitro ADME; settings: 1 mg protein/mL; for half-life at 1 µM / microsomal CLint at 1 µM: mouse liver microsomes
Experimental: as §1

[5] = target: T2, hKOR; assay: KOR cAMP assay using GloSensor-22F, antagonist mode (vs 10 nM U50,488); assay type: cell-based
Description: A piggy-Bac (PB) transposon/transposase system was utilized to allow for the stable integration of the GloSensor-22F cAMP sensor (Promega, Madison, WI, USA) gene into genomic TTAA sites in Chinese hamster ovary cells already stably expressing the hKOR. The pFastBac hyperPB plasmid vector, which codes for the piggy-Bac transposon/transposase system, was utilized and was a kind gift from Dr. John Lueck. The multicistronic expression cassette developed for our experiments consisted of a CMV promoter driving constitutive expression of GloSensor-22F cAMP sensor, followed by an internal ribosome entry site (IRES) to drive the expression of codon-optimized HygR-P2A-mScarlet (hygromycin resistance gene and mScarlet separated by a 2A self-cleaving peptide element). To clone the expression cassette onto the pFastBac vector, the CMV promoter and GloSensor-22F were PCR amplified from pGloSensor-22F cAMP Plasmid (Promega), the IRES sequence was PCR amplified from pLVX-CMV-Galpha-oA ONE-GO (a gift from Dr. Mikel Garcia-Marcos, Addgene plasmid #189732), the HygR-P2A-mScarlet sequence was a kind gift from Dr. Lueck, and a bGH-poly(A) termination sequence was PCR amplified from pcDNA3.1(+). The pFastBac vector was linearized via overnight digestion with CspCI at 37 °C, which cuts between two inverted terminal repeat (ITR) sequences, and the corresponding backbone and all PCR fragments were gel purified and assembled via Gibson assembly using the Gibson Assembly MasterMix (New England Biolabs, Ipswich, MA, USA). The resulting pFastBac CMV GloSensor-22F IRES HygR-P2A-mScarlet bGH plasmid was transformed into NEB Stable Competent E. coli (New England Biolabs), miniprepped using the E.Z.N.A. Plasmid DNA Mini Kit (Omega Bio-Tek, Norcross, GA, USA), and sequence verified by nanopore whole-plasmid sequencing (Eurofins Genomics, Louisville, KY, USA).
3.0 × 10^6 hKOR-CHO cells were plated on a 6 cm dish and incubated for four h at 37 °C and 5% CO2 in DMEM (Corning Mediatech, Manassas, VA, USA) supplemented with 5% FBS (Corning Mediatech), 1% Penicillin/Streptomycin (Gibco, Waltham, MA, USA). The cells were then transfected with 2.0 μg pFastBac CMV GloSensor-22F IRES HygR-P2A-mScarlet bGH using PEI as a transfection reagent. The following day, transfected cells were reseeded onto a 10 cm dish at a density of 5.0 × 10^5 cells and 600 μg/mL hygromycin B (Gold Bio, St. Louis, MO, USA) was added to the culture media. Cells were cultured under selection antibiotics for seven days, and the selection process was monitored by the increase in abundance of mScarlet positive cells via epifluorescence microscopy.
Following the selection period, KOR-CHO-GLO cells were maintained at 37 °C and 5% CO2 in DMEM supplemented with 5% FBS, 1% Penicillin/Streptomycin and 300 μg/mL hygromycin B to reduce the likelihood of CMV promoter silencing. On the day of the assay, cells were detached with 0.05% trypsin (Gibco) and counted, then centrifuged (1000× g, 5 min) and resuspended in assay buffer (1xPBS, 0.1% glucose, 0.5 mM MgCl2) containing 4 mM D-luciferin substrate (Gold Bio) at approximately 2 million cells/mL. 25 μL of cells (~50,000/well) were seeded onto poly L-lysine-coated white 96-well flat bottom plates (Greiner Bio-One, Kremsmünster, Austria)) and returned to the incubator for 60 min. Following incubation, cells were allowed to equilibrate to room temperature protected from light (10–15 min). Initial luminescence readings (at least 10 cycles) were collected for each well using a FLUOstar Omega v.6.2 plate reader (BMG Labtech, Ortenberg, Germany), after which the plate was removed. Prepared 4x treatments of drug (25 μL) were added to appropriate wells followed by 50 μL of 20 μM forskolin (AmBeed, Buffalo Grove, IL, USA) before the plate was returned to the reader and luminescence measured until final plateau levels were achieved (20–30 min). Assays were performed in duplicate and repeated at least three times.

[6] = target: T2, hKOR; assay: Competition binding, [3H]U69,593, hKOR-CHO membranes
[7] = system: C57BL/6J mice; assay: 55 °C warm-water tail-withdrawal assay, antinociception; assay type: in vivo, mouse; settings: p.o. dose response; significant only first 10 min at high doses
Experimental: For intracerebroventricular administration, peptides were dissolved in DMSO at a concentration of 20 mM (100 nmol/5 µL), then diluted to test doses in a final vehicle solution of 50%DMSO/50% saline (0.9%). For all other testing (for oral administration), peptides were made fresh each day for testing in a final vehicle solution of 10% DMSO/10% Solutol/80% saline (0.9%).
Intracerebroventricular injections were made directly into the lateral ventricle according to the modified steps detailed previously. The volume of all i.c.v. injections was 5 μL, using a 10 μL Hamilton microliter syringe. The mouse was lightly anesthetized with isoflurane, an incision was made in the scalp, and the injection was made 2 mm lateral and 2 mm caudal to bregma at a depth of 3 mm.
The dose response of analogs 3, 6, 9 and 14 were also assessed following administration of one of up to four additional oral (p.o.) doses (1–30 mg/kg).

[8] = target: DOR (Mus musculus, UniProt P32300); assay: 55 °C WWTW assay, antagonism of the DOR-selective agonist SNC80; settings: 3 or 4 30 mg/kg, p.o., 9 10 mg/kg, 2.5 h before SNC-80 100 nmol, i.c.v.
[9] = Kinetic aqueous solubility; assay type: physicochemical; settings: 1% DMSO, pH 7.4
Description: Table A1 Stability of [D-Trp]- and [D-Phe^4]CJ-15,208 and selected analogs in human (HLMs) and mouse liver microsomes (MLMs)^1. and kinetic aqueous solubility. | column: Solubility ^2 / (µM)

[10] = system: C57BL/6J mice; assay: Stress-induced reinstatement of extinguished cocaine conditioned place preference; settings: for fold lower dose for significant reduction of stress-induced reinstatement than [D-Trp]CJ-15,208: vs 60 mg/kg
[11] = target: CNS KORs (Mus musculus, UniProt P33534); assay: 55 °C WWTW assay, antagonism of centrally administered U50,488 (30 nmol, i.c.v.); settings: 2.5 h pretreatment; for antagonism of CNS KORs: 30 mg/kg, p.o. (9: 10 mg/kg, p.o.)
[12] = target: MOR (Mus musculus, UniProt P42866); assay: 55 °C WWTW assay, antagonism of the MOR-preferring agonist morphine; settings: 3 or 4 30 mg/kg, p.o., 9 10 mg/kg, 2.5 h before morphine 10 mg/kg, i.p.
[13] = system: C57BL/6J mice; design: method as in PMID 23425081; settings: cited from earlier work
[14] = target: KOR; design: method as in PMID 37765026; settings: cited from earlier work
[15] = [3H]DAMGO, human MOR, ± S.E.M., three independent experiments, read-out: MOR Ki
[16] = 1 µM compound, 37 °C, read-out: HLM t1/2
[17] = 1 µM compound, 37 °C, read-out: MLM t1/2
[18] = [3H]U69,593, human KOR, ± S.E.M., three independent experiments, read-out: KOR Ki
[19] = p.o. once daily for two days, 1.5 h prior to FSS

Row | Structure (SMILES) | Ki [1, 15] | Emax at 10 µM [2] | half-life at 1 µM [3, 16] | microsomal CLint at 1 µM ([3]; read-out: HLM CLint) | half-life at 1 µM [4, 17] | microsomal CLint at 1 µM ([4]; read-out: MLM CLint) | IC50 [5] | Selectivity (MOR Ki/KOR Ki) ([6]; MOR Ki/KOR Ki) | Ki [6, 18] | antinociception [7] | effect on antinociceptive effects of SNC80 [8] | solubility kinetic [9] | doses not preventing stress-induced reinstatement of cocaine CPP [10, 19] | fold lower dose for significant reduction of stress-induced reinstatement than [D-Trp]CJ-15,208 ([10]; p.o.) | doses not producing significant antagonism of CNS KORs [11] | antagonism of CNS KORs [11] | effect on antinociceptive effects of morphine [12] | further results
1 | O=C1N[C@H](Cc2ccccc2)C(=O)N[C@@H](Cc2ccccc2)C(=O)N2CCC[C@@H]2C(=O)N[C@H]1Cc1ccccc1 [Analog 4, cyclo[Phe-D-Pro-Phe-D-Phe]] (cyclo(F[dP]F[dF])) | 270 ± 23 nM | 19 ± 8.1% | 4.2 min | 165 µL/min/mg | 1.6 min | 447 µL/min/mg | 460 ± 100 nM | 11 | 24 ± 0.97 nM | < 20% | no significant effect | 24 µM (≈ 12.9 µg/mL) | 3 mg/kg | 6 fold | 3 mg/kg, p.o. | significant antagonism | no significant effect | fold lower KOR affinity than [D-Trp]CJ-15,208 (1) [6]: 3.5 fold
2 | O=Cn1cc(C[C@H]2NC(=O)[C@H](Cc3ccccc3)NC(=O)[C@H]3CCCN3C(=O)[C@H](Cc3ccccc3)NC2=O)c2ccccc21 [Analog 3, [D-Trp(formamide)]CJ-15,208] (cyclo(F[dP]F[dW](For))) | 90 ± 14 nM | 9.2 ± 4.9% | 2.8 min | 244 µL/min/mg | 1.1 min | 607 µL/min/mg | 49 ± 5.4 nM | 41 | 2.2 ± 0.15 nM | < 20% | no significant effect | 4.6 µM (≈ 2.79 µg/mL) | 10 mg/kg | 2 fold | 1–10 mg/kg, p.o. | significant antagonism | no significant effect | doses preventing stress-induced reinstatement of cocaine CPP [10, 19]: 30 mg/kg; doses giving significant antagonism of CNS KORs [11]: 30 mg/kg, p.o.
3 | O=C1N[C@H](Cc2c[nH]c3ccccc23)C(=O)N[C@@H](Cc2ccccc2)C(=O)N2CCC[C@@H]2C(=O)N[C@H]1Cc1ccccc1 [Analog 1, cyclo[Phe-D-Pro-Phe-D-Trp]] (cyclo(F[dP]F[dW])) |  | 16 ± 2.4% | 5.5 min | 127 µL/min/mg | 2.6 min | 269 µL/min/mg | 66 ± 11 nM |  |  |  |  | 23 µM (≈ 13.3 µg/mL) |  |  |  |  |  | Ki [1]: 58 ± 7.5 nM; dose required to prevent stress-induced reinstatement [13]: 60 mg/kg, p.o.; Ki [14]: 21.8 nM; Ki [6]: 6.9 ± 1.1 nM; Selectivity (MOR Ki/KOR Ki) [6]: 8
4 | O=C1N[C@H](Cc2cc(F)cc(F)c2)C(=O)N[C@@H](Cc2ccccc2)C(=O)N2CCC[C@@H]2C(=O)N[C@H]1Cc1ccccc1 [Analog 9, [D-Phe(3,5-F2)^4]CJ-15,208] (cyclo(F[dP]F[dPhe(3,5-F2)])) | 290 ± 27 nM | 14 ± 2.4% | 2.9 min | 237 µL/min/mg | 1.2 min | 600 µL/min/mg | 320 ± 49 nM | 12 | 25 ± 4.3 nM | < 20% | no significant effect | 8.6 µM (≈ 4.94 µg/mL) |  |  |  | significant antagonism | no significant effect | reduction of stress-induced reinstatement of cocaine CPP ([10]; 10 mg/kg, p.o.): not significant
5 | O=C1N[C@H](Cc2cccc(F)c2)C(=O)N[C@@H](Cc2ccccc2)C(=O)N2CCC[C@@H]2C(=O)N[C@H]1Cc1ccccc1 [Analog 6, [D-Phe(m-F)^4]CJ-15,208] (cyclo(F[dP]F[dPhe(3-F)])) | 160 ± 15 nM | 11 ± 5.6% | 1.8 min | 376 µL/min/mg | 2.1 min | 331 µL/min/mg | 340 ± 58 nM | 5 | 32 ± 5.8 nM | < 20% |  | 26 µM (≈ 14.5 µg/mL) |  |  |  | ineffective |  | 
6 | Cc1cccc(C[C@H]2NC(=O)[C@H](Cc3ccccc3)NC(=O)[C@H]3CCCN3C(=O)[C@H](Cc3ccccc3)NC2=O)c1 [Analog 14, [D-Phe(m-Me)^4]CJ-15,208] (cyclo(F[dP]F[dPhe(3-Me)])) | 130 ± 11 nM | 0.74 ± 5.7% |  |  |  |  | 320 ± 67 nM | 5 | 26 ± 3 nM | < 20% |  | 19 µM (≈ 10.5 µg/mL) |  |  |  | ineffective |  | half-life ([3]; microsomes, 1 µM compound, 37 °C, read-out: HLM t1/2): 4.1 min; microsomal CLint ([3]; microsomes, read-out: HLM CLint): 170 µL/min/mg; half-life ([4]; microsomes, 1 µM compound, 37 °C, read-out: MLM t1/2): 1.5 min; microsomal CLint ([4]; microsomes, read-out: MLM CLint): 467 µL/min/mg
